Assay results published in ChEMBL document CHEMBL5365461, “Degradation of Cyclin-Dependent Kinase 9/Cyclin T1 by Optimized Microtubule-Associated Protein 1 Light Chain 3 Beta-Recruiting Coumarin Analogs” (J Med Chem, 2023).
Active and inactive are the calls of the source. The rule behind the calls is not given here.

Columns and labels:
[1] = target: Cyclin-dependent kinase 9 (Homo sapiens) (UniProt P50750); assay: Induction of CDK9 55 kDa degradation in human U2932 cells assessed as maximal efficacy at 1 to 1000 nM by immunoblotting analysis relative to control; format: cell-based; conditions: dose 1-1000 nM
[2] = target: Cyclin-dependent kinase 9 (Homo sapiens) (UniProt P50750); assay: Induction of CDK9 55 kDa degradation in human U2932 cells by immunoblotting analysis; format: cell-based; conditions: dose 1-1000 nM
U2932 [3] = assay: Downregulation of c-Myc protein level in human U2932 cells incubated for 6 hrs by RT-qPCR analysis; format: functional, cell-based; conditions: dose 10-1000 nM
MV4-11 [4] = assay: Downregulation of c-Myc protein level in human MV4-11 cells incubated for 6 hrs by RT-qPCR analysis; format: functional, cell-based; conditions: dose 10-1000 nM
U2932 [5] = assay: Induction of apoptosis in human U2932 cells assessed as early apoptotic cells at 1000 nM incubated for 24 hrs by AnnexinV-FITC/PI staining based flow cytometry analysis (reference value: 6.20%); format: functional
[6] = target: Cyclin-dependent kinase 9 (Homo sapiens) (UniProt P50750); assay: Induction of CDK9 42 kDa degradation in human U2932 cells at 500 nM incubated for 12 hrs in presence of 5,7-Dihydroxy-4-methylcoumarin by immunoblotting analysis; format: cell-based
[7] = target: Cyclin-dependent kinase 9 (Homo sapiens) (UniProt P50750); assay: Induction of CDK9 42 kDa degradation in human U2932 cells at 500 nM incubated for 12 hrs in presence of BafA1 by immunoblotting analysis; format: cell-based
[8] = target: Cyclin-dependent kinase 9 (Homo sapiens) (UniProt P50750); assay: Induction of CDK9 55 kDa degradation in human U2932 cells at 500 nM incubated for 12 hrs in presence of BafA1 by immunoblotting analysis; format: cell-based
[9] = target: Cyclin-dependent kinase 9 (Homo sapiens) (UniProt P50750); assay: Induction of CDK9 42 kDa degradation in human U2932 cells at 500 nM incubated for 12 hrs in presence of MG132 by immunoblotting analysis; format: cell-based
[10] = Cmax in CD-1 mouse at 5 mg/kg, ip measured after 24 hrs by LC-MS/MS analysis; format: ADME, organism-based; set-up: dose 5 mg/kg, time 24 hrs, route ip; conditions: in vivo
MV4-11 [11] = assay: Antitumor activity against human MV4-11 cells xenografted in mouse assessed as reduction in tumor growth at 5 mg/kg, ip qd measured after 15 days; format: functional, organism-based; conditions: time 15.0 day
MV4-11 [12] = assay: Antitumor activity against human MV4-11 cells xenografted in mouse assessed as tumor growth inhibition at 5 mg/kg, ip qd measured after 15 days; format: functional; conditions: MV4-11, 360 h, time 15 day, read-out: TGI
[13] = Toxicity in mouse xenografted with human MV4-11 cells assessed as change in body weight at 5 mg/kg, ip qd measured after 15 days; format: organism-based; conditions: in vivo, 360 h, time 15 day
MV4-11 [14] = assay: Antitumor activity against human MV4-11 cells xenografted in mouse assessed as reduction in CDK9 level in tumor at 5 mg/kg, ip qd measured after 15 days by immunoblotting analysis; format: functional, organism-based; conditions: time 15.0 day
MV4-11 [15] = assay: Antitumor activity against human MV4-11 cells xenografted in mouse assessed as reduction in c-Myc level in tumor at 5 mg/kg, ip qd measured after 15 days by immunoblotting analysis; format: functional, organism-based; conditions: time 15.0 day
MV4-11 [16] = assay: Antitumor activity against human MV4-11 cells xenografted in mouse assessed as reduction in Mcl level in tumor at 5 mg/kg, ip qd measured after 15 days by immunoblotting analysis; format: functional, organism-based; conditions: time 15.0 day
[17] = target: CDK9/cyclin T1 (Homo sapiens) (UniProt O60563+P50750); assay: Induction of CDK9/CyclinT1 degradation in human U2932 cells at 100 nM measured after 24 hrs by immunoblotting analysis; format: cell-based
[18] = target: Cyclin-dependent kinase 1 (Homo sapiens) (UniProt P06493); assay: Induction of CDK1 degradation in human U2932 cells at 100 nM incubated for 24 hrs by immunoblotting analysis; format: cell-based
Chain of Cyclin-dependent kinase 1 (Homo sapiens) (P06493 whole entry, looked up): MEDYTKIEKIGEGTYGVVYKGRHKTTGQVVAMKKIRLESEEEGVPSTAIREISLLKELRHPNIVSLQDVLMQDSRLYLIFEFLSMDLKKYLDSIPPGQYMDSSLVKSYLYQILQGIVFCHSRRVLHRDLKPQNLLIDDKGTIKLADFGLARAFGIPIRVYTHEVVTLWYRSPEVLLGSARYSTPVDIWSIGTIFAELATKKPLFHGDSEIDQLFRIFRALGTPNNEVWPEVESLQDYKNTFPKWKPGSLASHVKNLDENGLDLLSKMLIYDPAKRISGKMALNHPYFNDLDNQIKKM

Chain of Cyclin-dependent kinase 9 (Homo sapiens) (P50750 whole entry): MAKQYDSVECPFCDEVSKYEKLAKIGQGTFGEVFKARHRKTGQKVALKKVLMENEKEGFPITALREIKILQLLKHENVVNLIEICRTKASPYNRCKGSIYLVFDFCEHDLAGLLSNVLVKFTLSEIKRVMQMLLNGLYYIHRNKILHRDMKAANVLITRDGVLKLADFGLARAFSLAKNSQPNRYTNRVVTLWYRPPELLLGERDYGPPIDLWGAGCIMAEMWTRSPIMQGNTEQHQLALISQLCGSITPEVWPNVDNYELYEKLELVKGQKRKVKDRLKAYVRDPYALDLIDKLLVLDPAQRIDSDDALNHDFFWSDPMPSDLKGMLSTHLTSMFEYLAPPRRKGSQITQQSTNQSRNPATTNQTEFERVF

| Emax [1] [%] | Activity [2] | Activity [6] | Activity [7] | Activity [8] | Activity [9] | Cmax [10] [ng/mL] | Activity [17] | Activity [18] | SMILES | Activity (U2932 [3]) | Activity (MV4-11 [4]) | Activity (U2932 [5]) [%] | Activity (MV4-11 [11]) | inhibition in vivo at 5 mg/kg (MV4-11 [12]) [%] | Activity [13] | Activity (MV4-11 [14]) | Activity (MV4-11 [15]) | Activity (MV4-11 [16]) |
| --- | --- | --- | --- | --- | --- | --- | --- | --- | --- | --- | --- | --- | --- | --- | --- | --- | --- | --- |
| 54.8 | Dose-Dependent Effect | inactive | inactive | inactive | Active | 88.4 |  |  | Cc1cc(=O)oc2cc(O)cc(OCCCCCN3CCC(C(=O)Nc4ncc(SCc5ncc(C(C)(C)C)o5)s4)CC3)c12 | Active | Dose-Dependent Effect | 15.2 | Active | 52 | Non-Toxic | Active | Active | Active |
| 46 | Dose-Dependent Effect | inactive | inactive | inactive | Active | 88.6 | Active | Active | Cc1cc(=O)oc2cc(OCCCN3CCC(C(=O)Nc4ncc(SCc5ncc(C(C)(C)C)o5)s4)CC3)cc(O)c12 | Active | Dose-Dependent Effect | 11.8 |  |  |  |  |  |  |
